The target of test [1] is T1, Probable G-protein coupled receptor 139 (Homo sapiens) (UniProt Q6DWJ6).
T1 sequence (whole entry): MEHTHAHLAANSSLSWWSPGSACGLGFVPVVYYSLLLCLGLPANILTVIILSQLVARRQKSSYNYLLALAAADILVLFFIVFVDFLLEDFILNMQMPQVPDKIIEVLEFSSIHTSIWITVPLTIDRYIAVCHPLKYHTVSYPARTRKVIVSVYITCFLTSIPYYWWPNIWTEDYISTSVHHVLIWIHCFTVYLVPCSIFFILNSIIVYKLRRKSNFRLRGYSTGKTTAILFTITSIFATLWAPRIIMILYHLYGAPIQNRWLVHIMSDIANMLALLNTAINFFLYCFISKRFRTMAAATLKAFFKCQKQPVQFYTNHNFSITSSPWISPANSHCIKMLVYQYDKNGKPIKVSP
In words: Agonist activity at human GPR139 expressed in CHO-K1 cells assessed as induction of beta-arrestin 2 recruitment incubated for 90 mins by PathHunter assay relative to JNJ63533054. It is filed as cell-based.

Test [2] concerns the target T2, Probable G-protein coupled receptor 139 (Rattus norvegicus, UniProt P0C0W8).
T2 sequence (P0C0W8 whole entry): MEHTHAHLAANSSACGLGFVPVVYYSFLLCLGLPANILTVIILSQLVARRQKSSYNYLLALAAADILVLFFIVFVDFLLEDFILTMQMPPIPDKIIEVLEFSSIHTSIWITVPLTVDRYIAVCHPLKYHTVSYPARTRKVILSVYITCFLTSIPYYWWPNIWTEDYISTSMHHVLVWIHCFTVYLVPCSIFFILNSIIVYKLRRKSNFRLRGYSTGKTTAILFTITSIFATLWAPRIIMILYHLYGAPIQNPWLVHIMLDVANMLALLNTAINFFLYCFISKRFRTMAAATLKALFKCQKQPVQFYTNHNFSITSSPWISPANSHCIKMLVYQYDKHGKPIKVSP
Kind of test: Agonist activity at rat GPR139 expressed in CHO-K1 cells assessed as increase in calcium flux by calcium 5 dye based FLIPR assay. Format: cell-based. A general note: Calcium flux is commonly read through the fluorescence of an indicator in the cells.

Test [3] concerns the target T1, Probable G-protein coupled receptor 139 (Homo sapiens). Kind of test: Agonist activity at human GPR139 expressed in CHO-K1 cells assessed as increase in calcium flux by calcium 5 dye based FLIPR assay relative to JNJ63533054. It is filed as functional, cell-based. Conditions: filed as agonist.
The target in test [4] is T3, Probable G-protein coupled receptor 139 (Homo sapiens, UniProt Q6DWJ6).
T3 sequence (Q6DWJ6 whole entry): T1 sequence (whole entry)
In words: Agonist activity at human GPR139 expressed in CHO-K1 cells assessed as increase in calcium flux by calcium 5 dye based FLIPR assay. Format: functional, cell-based.

In test [5] the target is T3, Probable G-protein coupled receptor 139. In words: Agonist activity at human GPR139 expressed in CHO-K1 cells assessed as induction of beta-arrestin 2 recruitment incubated for 90 mins by PathHunter assay. It is filed as cell-based. (In general: Recruitment of arrestin is a read-out of receptor activation apart from second messengers.)
The target of test [6] is T4, Probable G-protein coupled receptor 139 (Rattus norvegicus) (UniProt P0C0W8).
T4 sequence (whole entry): T2 sequence (P0C0W8 whole entry)
Kind of test: Agonist activity at rat GPR139 expressed in CHO-K1 cells assessed as increase in calcium flux by calcium 5 dye based FLIPR assay relative to JNJ63533054. Format: cell-based.

As usually defined, the Emax is the size of the effect at its maximum, as opposed to the concentration needed. Broadly, the EC50 is the midpoint of the concentration-response curve. Turning to `C[C@H](NC(=O)Cn1nc2c(C(F)F)nccn2c1=O)c1ccc(OC(F)(F)F)cc1`, the Emax is 25% in test [1], greater than 80% in test [3] and 50% in test [6] (filed as agonist). Also, the EC50 in test [2] is no less than 100 nM; in test [4] (cho-k1), 1 nM; in test [5], less than 1 nM.

For `C[C@H](NC(=O)Cn1nc2c(OC3CN(C)C3)nccn2c1=O)c1ccc(Cl)c(F)c1`, the values for the Emax in test [1], in test [3] and in test [6] (filed as agonist) were 25%, 50% and greater than 80%, respectively. The 50% effective concentration (EC50) in test [2], in test [4] and in test [5] was no less than 100 nM each time.

With `C[C@H](NC(=O)Cn1nc2ncccn2c1=O)c1ccc(C2CC2)cc1`, the figures for the maximum response (Emax) in test [1], in test [3] and in test [6] were less than 25%, 50% and less than 25%, respectively. For the same compound, the EC50 in test [2], in test [4] and in test [5] was no less than 100 nM each time.

Take `Cc1ccn2c(=O)n(CC(=O)N[C@@H](C)c3ccc(OC(F)(F)F)cc3)nc2c1`: the Emax in test [1] (filed as agonist) is greater than 80%; in test [3], greater than 80%; in test [6] (filed as agonist), 50%. Also, the EC50 in test [2] is less than 1 nM; in test [4] it was less than 1 nM; in test [5] (cho-k1) it was 1 nM.

On to `O=C(Cn1nc2ccc(F)cn2c1=O)NC1(c2ccc(Cl)cc2)CC1`, for which the Emax is 25% in test [1], greater than 80% in test [3] and 25% in test [6]. Further, the figures for the EC50 in test [2], in test [4] (cho-k1) and in test [5] were no less than 100 nM, 10 nM and no less than 100 nM, respectively.

Consider `C[C@H](NC(=O)Cn1nc2cc(N3CCOCC3)cnn2c1=O)c1ccc(Cl)c(F)c1`, for which the values for the Emax in test [1], in test [3] and in test [6] (filed as agonist) were 25%, greater than 80% and greater than 80%, respectively. In addition, the EC50 in test [2] (cho-k1) is 1 nM; in test [4] (cho-k1) it was 1 nM; in test [5], no less than 100 nM.

Consider `C[C@H](NC(=O)Cn1nc2c(NC3COC3)ccnn2c1=O)c1ccc(OC(F)(F)F)cc1`, for which the Emax in test [1] is 25%; in test [3], greater than 80%; in test [6] (filed as agonist) it was 50%. The EC50 in test [2] was no less than 100 nM; in test [4] (cho-k1), 1 nM; in test [5] it was no less than 100 nM.

Turning to `C[C@H](NC(=O)Cn1nc2ccccn2c1=O)c1ccc(C(F)(F)F)cc1`, the values for the Emax in test [1] (filed as agonist), in test [3] and in test [6] were 50%, greater than 80% and 25%, respectively. Moreover, the values for the EC50 in test [2] (cho-k1), in test [4] (cho-k1) and in test [5] (cho-k1) were 1 nM, 1 nM and 10 nM, respectively.

As for `C[C@H](NC(=O)Cn1nc2cc(N3CCCCC3)ccn2c1=O)c1ccc(OC(F)(F)F)cc1`, the results for the Emax in test [1] (filed as agonist), in test [3] and in test [6] (filed as agonist) were greater than 80%, 50% and greater than 80%, respectively. Besides, the EC50 in test [2] is less than 1 nM; in test [4], less than 1 nM; in test [5], no less than 100 nM.

As to `Cc1ccc([C@H](C)NC(=O)Cn2nc3cc(Cl)ccn3c2=O)cc1`, the Emax in test [1] (filed as agonist) was 50%; in test [3] it was greater than 80%; in test [6] (filed as agonist), 50%. Further, the figures for the EC50 in test [2] (cho-k1), in test [4] and in test [5] (cho-k1) were 1 nM, less than 1 nM and 1 nM, respectively.

As to `C[C@H](NC(=O)Cn1nc2cc(-c3ccccc3)ccn2c1=O)c1ccc(Cl)c(F)c1`, the Emax in test [1] (filed as agonist), in test [3] and in test [6] (filed as agonist) was greater than 80% in each case. Moreover, the EC50 in test [2], in test [4] and in test [5] was less than 1 nM throughout.

`Cc1cc(Cl)ccc1[C@H](C)NC(=O)Cn1nc2ncccn2c1=O`: the values for the Emax in test [1] (filed as agonist), in test [3] and in test [6] were 50%, greater than 80% and 25%, respectively. The EC50 in test [2] was no less than 100 nM; in test [4] (cho-k1) it was 1 nM; in test [5], no less than 100 nM.

Consider `Cc1cc([C@H](C)NC(=O)Cn2nc3cccnn3c2=O)ccc1Cl`, for which the values for the Emax in test [1] (filed as agonist), in test [3] and in test [6] (filed as agonist) were 50%, greater than 80% and greater than 80%, respectively. The figures for the EC50 in test [2] (cho-k1), in test [4] (cho-k1) and in test [5] were 1 nM, 1 nM and no less than 100 nM, respectively.

Regarding `C[C@H](NC(=O)Cn1nc2cccnn2c1=O)c1ccc(OC(F)(F)F)c(F)c1`, the Emax was 50% in test [1] (filed as agonist), greater than 80% in test [3] and 50% in test [6] (filed as agonist). The EC50 in test [2] (cho-k1) was 1 nM; in test [4] (cho-k1), 1 nM; in test [5] (cho-k1), 10 nM.

In the case of `C[C@H](NC(=O)Cn1nc2cc(Cl)ccn2c1=O)c1ccc(Cl)c(F)c1`, the maximal response (Emax) in test [1] (filed as agonist), in test [3] and in test [6] (filed as agonist) was greater than 80% each time. Further, the 50% effective concentration (EC50) in test [2] was less than 1 nM; in test [4], less than 1 nM; in test [5] (cho-k1), 1 nM.

Turning to `Cc1ccc([C@H](C)NC(=O)Cn2nc3cccc(F)n3c2=O)cc1`, the Emax was 50% in test [1] (filed as agonist), greater than 80% in test [3] and 25% in test [6]. In addition, the figures for the concentration for a half-maximal effect (EC50) in test [2] (cho-k1), in test [4] (cho-k1) and in test [5] (cho-k1) were 1 nM, 1 nM and 10 nM, respectively.

For the compound `COc1cccn2c(=O)n(CC(=O)N[C@@H](C)c3ccc(C)cc3)nc12`, the values for the maximum response (Emax) in test [1] (filed as agonist), in test [3] and in test [6] (filed as agonist) were 50%, greater than 80% and 50%, respectively. In addition, the figures for the EC50 in test [2] (cho-k1), in test [4] and in test [5] were 1 nM, less than 1 nM and less than 1 nM, respectively.

As to `Cc1ccc([C@H](C)NC(=O)Cn2nc3ccc(F)cn3c2=O)cc1F`, the Emax in test [1] (filed as agonist) was 50%; in test [3], greater than 80%; in test [6] (filed as agonist) it was 50%. Besides, the EC50 in test [2] is less than 1 nM; in test [4], less than 1 nM; in test [5] (cho-k1), 1 nM.

Consider `O=C(Cn1nc2cccnn2c1=O)NC1(c2ccc(Cl)cc2)CC1`, for which the maximal effect (Emax) in test [1] is less than 25%; in test [3], 50%; in test [6] (filed as agonist) it was 50%. In addition, the concentration giving a half-maximal response (EC50) in test [2], in test [4] and in test [5] was no less than 100 nM throughout.

`C[C@H](NC(=O)Cn1nc2cc(N3CCOCC3)ccn2c1=O)c1ccc(OC(F)(F)F)cc1`: the Emax in test [1] (filed as agonist) was 50%; in test [3], greater than 80%; in test [6] (filed as agonist) it was greater than 80%. In addition, the EC50 was 1 nM in test [2] (cho-k1), 1 nM in test [4] (cho-k1) and no less than 100 nM in test [5].

For the compound `CC(NC(=O)Cn1nc2ccccn2c1=O)c1ncc(Cl)cc1F` (centres undefined), the figures for the Emax in test [1], in test [3] and in test [6] were 25%, 50% and less than 25%, respectively. Also, the EC50 in test [2], in test [4] and in test [5] was no less than 100 nM each time.

With `C[C@H](NC(=O)Cn1nc2cc(N3CCC[C@H](O)C3)ccn2c1=O)c1ccc(OC(F)(F)F)cc1`, the Emax in test [1] (filed as agonist), in test [3] and in test [6] (filed as agonist) was greater than 80% each time. Besides, the half-maximal effective concentration (EC50) was 1 nM in test [2] (cho-k1), 1 nM in test [4] (cho-k1) and no less than 100 nM in test [5].

Take `C[C@H](NC(=O)Cn1nc2c(NCC(F)F)ccnn2c1=O)c1ccc(OC(F)(F)F)cc1`: the values for the Emax in test [1], in test [3] and in test [6] were 25%, greater than 80% and 25%, respectively. Also, the EC50 in test [2] (cho-k1) was 1 nM; in test [4] it was less than 1 nM; in test [5] (cho-k1) it was 1 nM.

For the compound `O=C(Cn1nc2ccc(F)cn2c1=O)NC1(c2cccc(Cl)c2)CC1`, the Emax in test [1] is 25%; in test [3], greater than 80%; in test [6] (filed as agonist), 50%. Moreover, the EC50 in test [2], in test [4] and in test [5] was no less than 100 nM throughout.

These data come from ChEMBL document CHEMBL4739716, “Gpr139 receptor modulators” (2020).
